Legend:
[1] = target: farnesyl protein transferase (H-ras) (Homo sapiens, UniProt P49354+P49356); experiment: FPT IC50 (H-ras), inhibition of farnesyl protein transferase, in vitro enzyme assay; format: biochemical
Description: (§1) FPT IC50 (inhibition of farnesyl protein transferase, in vitro enzyme assay) and COS Cell IC50 (Cell-Based Assay) were determined following the assay procedures described in WO 95/10516, published Apr. 20, 1995. GGPT IC50 (inhibition of geranylgeranyl protein transferase, in vitro enzyme assay), Cell Mat Assay, and anti-tumor activity (in vivo anti-tumor studies) could be determined by the assay procedures described in WO 95/10516. The disclosure of WO 95/10516 is incorporated herein by reference thereto.

[2] = target: farnesyl protein transferase (K-ras) (Homo sapiens, UniProt P49354+P49356); experiment: FPT IC50 (K-ras), inhibition of farnesyl protein transferase, in vitro enzyme assay; format: biochemical
Description: as §1

COS Cell = COS Cell IC50 (Cell-Based Assay); conditions: COS cells
Description: as §1

Human tumor cells = experiment: Soft Agar Assay (anchorage-independent growth); format: cell-based; conditions: incubated 10-16 days at 37° C. under 5% CO2, MTT stain
Description: Anchorage-independent growth is a characteristic of tumorigenic cell lines. Human tumor cells are suspended in growth medium containing 0.3% agarose and an indicated concentration of a farnesyl transferase inhibitor. The solution is overlayed onto growth medium solidified with 0.6% agarose containing the same concentration of farnesyl transferase inhibitor as the top layer. After the top layer is solidified, plates are incubated for 10-16 days at 37° C. under 5% CO2 to allow colony outgrowth. After incubation, the colonies are stained by overlaying the agar with a solution of MTT (3-[4,5-dimethyl-thiazol-2-yl]-2,5-diphenyltetrazolium bromide, Thiazolyl blue) (1 mg/mL in PBS). Colonies can be counted and the IC50 's can be determined.

Row | Structure (SMILES) | IC50 [1] [nM] | IC50 [2] [nM] | IC50 (Human tumor cells) [nM] | IC50 (COS Cell) [nM]
1 | O=C(CC1CCN(c2nccs2)CC1)N1CCC([C@H]2c3ncc(Br)cc3CCc3cc(Cl)cc(Br)c32)CC1 [Formula 3.0] | 140 | – | – | –
2 | O=C(CC1CCN(c2nc3ccccc3o2)CC1)N1CCC([C@H]2c3ncc(Br)cc3CCc3cc(Cl)cc(Br)c32)CC1 [Formula 4.0] | 16 | 91 | – | 120
3 | O=C(CC1CCN(c2ccccn2)CC1)N1CCC([C@H]2c3ncc(Br)cc3CCc3cc(Cl)cc(Br)c32)CC1 [Formula 5.0] | 10.6 | 29 | > 500 | 39
4 | CC(=O)OC[C@H]1O[C@@H](N2CCC(CC(=O)N3CCC([C@H]4c5ncc(Br)cc5CCc5cc(Cl)cc(Br)c54)CC3)CC2)[C@H](OC(C)=O)[C@@H](OC(C)=O)[C@@H]1OC(C)=O [Formula 9.3] | 4.6 | 40.9 | 80 | 35

More lines, main results first:

Row | IC50 [1] [nM] | IC50 [2] [nM] | IC50 (Human tumor cells) [nM] | Structure (SMILES) | IC50 (COS Cell) [nM]
5 | 31 | – | – | O=C(CC1CCN(c2nnnn2-c2ccccc2)CC1)N1CCC([C@H]2c3ncc(Br)cc3CCc3cc(Cl)cc(Br)c32)CC1 [Formula 2.0] | –
6 | 20 | – | – | O=C(CC1CCN(c2ncccn2)CC1)N1CCC([C@H]2c3ncc(Br)cc3CCc3cc(Cl)cc(Br)c32)CC1 [Formula 6.0] | 68

Reference: patent publication US5985879A, “Compounds useful for inhibition of farnesyl protein transferase” (Schering Corporation, priority 1997, dated 1999)
